According to patent US8173673B2, “Biofilm-inhibiting effect and anti-infective activity of N,C-linked aryl isoquinolines and the use thereof” (Julius-Maximilians-Universitaet Wuerzburg, priority 2006, dated 2012):
Like-named read-outs stand apart in the source and are kept apart here. Blank lines part the entries; values can stand above or below the molecule they belong to.

Columns and labels:
Format in all cases: cell-based
[1] = system: Trypanosoma brucei brucei strain TC-221; test: Alamar Blue anti-trypanosome test, bloodstream forms
Method: Bloodstream-forms of the strain TC-221 of Trypanosoma brucei brucei were cultivated in enriched Baltz-culture medium in an atmosphere von 5% CO2 at 37° C. For activity determinations, a defined number of pathogens (10^4 trypanosomes per ml) were incubated in 96-well-plates with the compounds in different concentrations for 48 to 72 hours. The effect of the drugs was quantifiable using the ED50-values with linear interpolation. The trypanocidal activity of the test compounds was determined through measuring absorption on an MR 700 microplate reader (test wavelength 550 nm, reference wavelength 630 nm) by means of Alamar Blue®, an indicator of metabolic cellular functions. The addition of the dye took place 24 hours after starting the incubation. The color change of Alamar Blue® as used in this absorption measurements is based on reduction processes involving NADH or NADH-dependent enzymes. Incubation times and the concentrations of dye as required correlate with the metabolic activities of the trypanosomes. The MIC-value (minimum inhibitory concentration) was determined microscopically through counting of living cells in Neubauer-counting chambers. Suramine Na served both as positive control and reference.
The anti-trypanosomal activities of the compounds of the general structures 1-3 were studied based on a series of examples according to the above-described methods. The therapeutic index is the ratio of the cytoxicity (J774.1 macrophages) to the activities against Trypanosoma brucei brucei.

[2] = system: Leishmania major-promastigotes (MHOM/IL81/FE/BNI); test: Alamar Blue activity test against Leishmania major promastigotes
Method: Leishmania major-promastigotes (MHOM/IL81/FE/BNI) were cultivated in blood agar-cultures at 26° C., 5% CO2, and 95% humidity. For the experiment, the promastigotes were washed twice with saline phosphate buffer (PBS) and subsequently suspended (10^8 cells/ml) in Click-RPMI-1640-medium without phenol red, spiked with 10% FCS, 2 mM L-glutamine, 1.0 mM HEPES-buffer, pH 7.2, 100 μg/ml penicillin, […] gentamycin, 7.5% NaHCO3 and 50 μM 2-mercaptoethanol (culture medium). For the determination of activity, 200 μl of the promastigote-suspension in microtiter plates were each incubated with the compounds in a geometric series of dilutions for 24 hours at 26° C., 5% CO2, and 95% humidity. Subsequently, 20 μl Alamar Blue (Trinova Biochem, Gieβen, Germany) were added to each of the microcultures, and the cultures were incubated further. Cultures that only contained medium and the compound, or only cellular suspension (without compound), served as controls. The optical density was measured after another 24 hours with an ELISA-reader at the wave lengths 550 nm and 630 nm. The IC50-values of the compounds were calculated through linear interpolation (J. Mikes, D. Steverding. Parasitol. Int. 2000, 48, 265-269).
Macrophages of the cell line J774.1 were washed and suspended in culture medium ([…]. For the test, 200 μl of the cell suspension and the compounds were pipetted in a geometric series of dilutions into cultures on microtiter plates. Following 24 hours of incubation at 37° C., 5% CO2, and 95% humidity, 20 μl Alamar Blue were added to each micro-culture, and the microtiter plate was incubated further. Micro-cultures with medium and the compound as well as micro-cultures that only contained cellular suspension (without compound), served as controls. The optical density was measured after 24, 48, and 72 hours with an ELISA-reader at the wavelengths 550 nm and 630 nm. The IC50-values of the compounds were calculated using linear interpolation. Amphotericin B served as a reference compound and positive control. […]

[3] = system: Plasmodium falciparum strain K1; test: [3H]-hypoxanthine-inclusion-test, anti-plasmodium activity
Source text: For the determination of the anti-plasmodium activities, cultures of Plasmodium falciparum strain K1 (resistant against chloroquine and pyrimethamine) were used. A modification (R. G. Ridley, W. Hofheinz, if Matile, C. Jacquet, A. Dorn, R. Masciadri, S. Jolidon, W. F. Richter, A. Guenzi, M. A. Girometta, H. Urwyler, W. Huber, S. Thaitong, W. Peters, Antimicrob. Agents Chemother. 1996, 40, 1846-1854) of the [^3H]-hypoxanthine-inclusion-test (R. E. Desjardins, C. J. Canfield, D. Haynes, J. Chulay, Antimicrob. Agents Chemother. 1979, 16, 710-718) was used. Human red blood cells infected with P. falciparum (0.3% infection) at a hematocrit of 2.5% (volume fraction of the red blood cells) in RPMI 1640 medium with the serum replacement Albumax II (5 g/L) were incubated with serial dilutions of the drugs in microtiter plates for 48 hours at 37° C. under a CO2-enriched and O2-reduced atmosphere. Then, 0.5 μCi [^3H]-hypoxanthine were added to each well of the microtiter plate, and after a further 24 hours of incubation time the wells were harvested with a Betaplate Cell Harvester onto glass fiber filters, and lysed with distilled water. The incorporation of radio-labeled hypoxanthine (which correlates with the quantity of living parasites) was determined using a scintillation counter. The IC50 value was determined from sigmoidal inhibition curves. The tests were performed in duplicate, and repeated at least once. Parasite cultures without additive served as control (100% incorporation), cultures with a dilution series of chloroquine served as positive control.
(§1) The anti-plasmodia activities of the compounds of the general structures 1-3 were studied based on a series of examples according to the above-described methods. The therapeutic index is the ratio of the IC50 values for rat myoblasts (L-6-cells=cytotoxicity) to the IC50 values for Plasmodium falciparum.

[4] = system: rat myoblasts (L-6-cells); test: Cytotoxicity on rat myoblasts (L-6-cells); details: result in words
Source text: as §1

[5] = Trypanosoma brucei, T. brucei brucei TC-221, after 48 h, read-out: ED50 (μM) after 48 h
[6] = Trypanosoma brucei, T. brucei brucei TC-221, after 72 h, read-out: ED50 (μM) after 72 h
[7] = P. falciparum strain K1 (resistant against chloroquine and pyrimethamine), read-out: IC50

EC50 [1, 5]: 0.383 µM
EC50 [1, 6]: 0.323 µM
Compound: COc1cc(OC)c2c(C)[n+](-c3ccccc3OC)c(C)cc2c1 [E]

EC50 ([1]; T. brucei brucei TC-221, after 48 h, read-out: ED50 (μM) after 48 h): 0.31 µM
EC50 ([1]; T. brucei brucei TC-221, after 72 h, read-out: ED50 (μM) after 72 h): 0.32 µM
Compound: Cc1ccc(C(=O)Nc2ccc(S(=O)(=O)O)c3cc(S(=O)(=O)O)cc(S(=O)(=O)O)c23)cc1NC(=O)c1cccc(NC(=O)Nc2cccc(C(=O)Nc3cc(C(=O)Nc4ccc(S(=O)(=O)O)c5cc(S(=O)(=O)O)cc(S(=O)(=O)O)c45)ccc3C)c2)c1 [Suramin Na, reference compound]

EC50 [1, 5]: 0.325 µM
EC50 [1, 6]: 0.311 µM
Compound: COc1ccc(-[n+]2c(C)cc3cc(OC)cc(OC)c3c2C)c(OC)c1 [F]

IC50 [3, 7]: 56 nM
Compound: COc1cc(OC)c2c(C)[n+](-c3ccc(Cl)cc3)c(C)cc2c1 [G]

IC50 [3, 7]: 211 nM
Compound: COc1cc(OC)c2c(C)[n+](-c3ccc(NC(C)=O)cc3)c(C)cc2c1 [I]
cytotoxicity [4]: without a detectable cytotoxicity

IC50 [3, 7]: 282 nM
Compound: COc1cc(OC)c2c(C)[n+](-c3ccc(C(F)(F)F)cc3)c(C)cc2c1 [H]

Further lines, the molecule ahead of its results:

Compound: COc1cc(OC)c2c(C)[n+](-c3ccc(C(C)C)cc3)c(C)cc2c1 [D]
IC50 [2]: 850 nM

Compound: COc1cc(OC)c2c(C)[n+](-c3ccc(C)cc3)c(C)cc2c1 [B]
IC50 [2]: 2450 nM

Compound: CCN(CC)CCCC(C)Nc1ccnc2cc(Cl)ccc12 (stereo not shown) [chloroquine, reference compound]
IC50 ([3]; K1): 119 nM

Compound: COc1cc2c(c(OC)c1)C(C)=[N+](c1cccc3ccccc13)[C@@H](C)C2 [Compound 2a, (3S)—N,1′-naphthyl-6,8-dimethoxy-1,3-dimethyl-3,4-dihydroisoquinolinium-trifluoro-acetate]
EC50 [1, 5]: 0.39 µM
EC50 [1, 6]: 0.356 µM

Compound: C[C@@H]1[C@H](O)[C@@H](C)/C=C/C=C/C=C/C=C/C=C/C=C/C=C/[C@H](O[C@@H]2O[C@H](C)[C@@H](O)[C@H](N)[C@@H]2O)C[C@@H]2O[C@](O)(C[C@@H](O)C[C@@H](O)[C@H](O)CC[C@@H](O)C[C@@H](O)CC(=O)O[C@H]1C)C[C@H](O)[C@H]2C(=O)O [Amphotericin B, reference compound]
IC50 [2]: 2510 nM
